Experimental data published in patent publication US20240109917A1 (ACTELION PHARMACEUTICALS LTD, priority 2020, published 2024).

Key:
[1] = biological target: His6-TEV-PDGFRβ (557-1016) (Homo sapiens (Human), UniProt P09619); test: PDGFRβ HTRF Assay; assay type: biochemical; settings: read-out: PDGFR HTRF IC50
In short: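 Human PDGFRβ (557-1016) pre-incubated with compound for 30 min at RT in pH 7.5 HEPES/MgCl2/EGTA/Brij-35/DTT buffer. Reaction started with ATP and TK-biotin peptide, run 3 h at RT, then quenched with EDTA-containing Eu-cryptate antibody/streptavidin-XL665. HTRF 665/620 nm ratio read after 60 min; percent inhibition relative to DMSO and 10 μM imatinib controls.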

VEGFR2, unphosphorylated = VEGFR2, unphosphorylated (Homo sapiens (Human), UniProt P35968); test: VEGFR ADP GLO Assay; assay type: biochemical
VEGFR2, unphosphorylated, sequence (P35968 20-1356): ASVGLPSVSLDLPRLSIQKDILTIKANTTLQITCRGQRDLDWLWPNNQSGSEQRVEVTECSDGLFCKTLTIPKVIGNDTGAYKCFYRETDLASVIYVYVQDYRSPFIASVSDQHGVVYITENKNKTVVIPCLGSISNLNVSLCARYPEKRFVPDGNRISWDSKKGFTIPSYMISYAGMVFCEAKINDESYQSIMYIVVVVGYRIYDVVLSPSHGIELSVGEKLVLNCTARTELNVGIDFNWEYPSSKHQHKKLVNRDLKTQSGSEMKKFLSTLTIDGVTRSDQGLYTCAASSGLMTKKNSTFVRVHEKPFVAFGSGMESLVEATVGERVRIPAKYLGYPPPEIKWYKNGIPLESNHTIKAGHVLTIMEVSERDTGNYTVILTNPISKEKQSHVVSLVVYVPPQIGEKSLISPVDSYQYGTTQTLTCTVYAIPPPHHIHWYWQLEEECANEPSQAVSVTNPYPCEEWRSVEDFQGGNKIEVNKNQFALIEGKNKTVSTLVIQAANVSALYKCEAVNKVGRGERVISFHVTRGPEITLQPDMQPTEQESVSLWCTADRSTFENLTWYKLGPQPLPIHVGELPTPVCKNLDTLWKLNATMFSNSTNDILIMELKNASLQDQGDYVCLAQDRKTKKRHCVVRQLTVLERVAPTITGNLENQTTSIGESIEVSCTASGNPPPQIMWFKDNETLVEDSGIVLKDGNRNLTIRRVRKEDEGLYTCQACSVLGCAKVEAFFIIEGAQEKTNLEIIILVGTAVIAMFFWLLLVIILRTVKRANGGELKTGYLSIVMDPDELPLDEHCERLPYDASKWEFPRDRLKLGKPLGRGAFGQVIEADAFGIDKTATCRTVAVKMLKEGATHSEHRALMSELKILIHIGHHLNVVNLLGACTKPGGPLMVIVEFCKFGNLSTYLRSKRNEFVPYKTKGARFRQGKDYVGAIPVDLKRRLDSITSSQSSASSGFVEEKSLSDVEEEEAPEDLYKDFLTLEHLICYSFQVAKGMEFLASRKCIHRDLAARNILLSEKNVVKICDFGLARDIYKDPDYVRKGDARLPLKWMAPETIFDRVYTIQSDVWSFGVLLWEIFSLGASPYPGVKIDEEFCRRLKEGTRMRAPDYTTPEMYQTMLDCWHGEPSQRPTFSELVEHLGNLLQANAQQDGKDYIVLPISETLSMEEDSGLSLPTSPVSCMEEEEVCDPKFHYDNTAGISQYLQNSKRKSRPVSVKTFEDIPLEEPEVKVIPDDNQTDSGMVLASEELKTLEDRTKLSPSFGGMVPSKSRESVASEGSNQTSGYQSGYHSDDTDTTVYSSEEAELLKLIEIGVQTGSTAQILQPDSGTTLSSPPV

His6-TEV-PDGFRβ (557-1016), sequence (P09619 557-1016): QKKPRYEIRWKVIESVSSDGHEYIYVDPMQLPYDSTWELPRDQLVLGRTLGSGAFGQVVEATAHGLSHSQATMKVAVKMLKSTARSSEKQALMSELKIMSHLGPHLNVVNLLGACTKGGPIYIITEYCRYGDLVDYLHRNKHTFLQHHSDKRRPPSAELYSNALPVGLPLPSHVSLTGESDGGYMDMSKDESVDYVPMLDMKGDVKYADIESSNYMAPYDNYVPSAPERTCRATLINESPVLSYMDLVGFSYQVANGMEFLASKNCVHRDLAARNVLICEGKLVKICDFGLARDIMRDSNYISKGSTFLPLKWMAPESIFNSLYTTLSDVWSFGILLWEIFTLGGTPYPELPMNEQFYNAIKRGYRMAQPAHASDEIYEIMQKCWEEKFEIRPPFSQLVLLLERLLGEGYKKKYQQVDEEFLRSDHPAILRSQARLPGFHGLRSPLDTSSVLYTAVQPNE

Cc1ncc(C(=O)NC2CN(C(C)(C)C)C2)cc1NC(=O)c1cnn2cc(-c3cnn(C)c3)sc12 [Example 237, N-(5-((1-(tert-butyl)azetidin-3-yl)carbamoyl)-2-methylpyridin-3-yl)-2-(1-methyl-1H-pyrazol-4-yl)pyrazolo[5,1-b]thiazole-7-carboxamide]
IC50 [1]: 1.4 nM | IC50 (VEGFR2, unphosphorylated): > 7500 nM

COc1ncccc1-c1cn2ncc(C(=O)Nc3cc(C(=O)NCCN4CCCC4C)cnc3C)c2s1 (centres unmarked) [Example 228, 2-(2-Methoxypyridin-3-yl)-N-(2-methyl-5-((2-(2-methylpyrrolidin-1-yl)ethyl)carbamoyl)pyridin-3-yl)pyrazolo[5,1-b]thiazole-7-carboxamide]
IC50 [1]: 0.2 nM | IC50 (VEGFR2, unphosphorylated): > 833 nM

Cc1ncc(NC(=O)CN(C)C2CCOCC2)cc1NC(=O)c1cnn2cc(-c3cnn(C)c3)sc12 [Example 15, 2-(1-methyl-1H-pyrazol-4-yl)-N-(2-methyl-5-(2-(methyl(tetrahydro-2H-pyran-4-yl)amino)acetamido)pyridin-3-yl)pyrazolo[5,1-b]thiazole-7-carboxamide]
IC50 [1]: 0.5 nM | IC50 (VEGFR2, unphosphorylated): > 7500 nM

Cc1ncc(C(=O)NCCN2CCCC2(C)C)cc1NC(=O)c1cnn2cc(-c3c(C)n[nH]c3C)sc12 [Example 231, 2-(3,5-Dimethyl-1H-pyrazol-4-yl)-N-(5-((2-(2,2-dimethylpyrrolidin-1-yl)ethyl)carbamoyl)-2-methylpyridin-3-yl)pyrazolo[5,1-b]thiazole-7-carboxamide]
IC50 [1]: 0.4 nM | IC50 (VEGFR2, unphosphorylated): > 7500 nM

Cc1ncc(NC(=O)OCCN2CC3CCC2C3)cc1NC(=O)c1cnn2cc(-c3cnn(C)c3)sc12 (centres unmarked) [Example 250, 2-(2-azabicyclo[2.2.1]heptan-2-yl)ethyl (6-methyl-5-(2-(1-methyl-1H-pyrazol-4-yl)pyrazolo[5,1-b]thiazole-7-carboxamido)pyridin-3-yl)carbamate]
IC50 [1]: 1.4 nM | IC50 (VEGFR2, unphosphorylated): > 7500 nM

Cc1ncc(C(=O)NCCN2CCCC2)cc1NC(=O)c1cnn2cc(-c3cn(C)nc3C(F)(F)F)sc12 [Example 227, 2-(1-Methyl-3-(trifluoromethyl)-1H-pyrazol-4-yl)-N-(2-methyl-5-((2-(pyrrolidin-1-yl)ethyl)carbamoyl)pyridin-3-yl)pyrazolo[5,1-b]thiazole-7-carboxamide]
IC50 [1]: 0.9 nM | IC50 (VEGFR2, unphosphorylated): > 833 nM

Cc1ncc(NC(=O)CCN2CCCC2(C)C)cc1NC(=O)c1cnn2cc(-c3ccn(C)n3)sc12 [Example 12, N-(5-(3-(2,2-dimethylpyrrolidin-1-yl)propanamido)-2-methyl-pyridin-3-yl)-2-(1-methyl-1H-pyrazol-3-yl)pyrazolo[5,1-b]thiazole-7-carboxamide]
IC50 [1]: 0.3 nM | IC50 (VEGFR2, unphosphorylated): > 7500 nM

Cc1cc(C(=O)NCCN2CC[C@H](O)C2)sc1NC(=O)c1cnn2cc(-c3cnn(C)c3)sc12 [Example 195, (S)—N-(5-((2-(3-hydroxypyrrolidin-1-yl)ethyl)carbamoyl)-3-methylthiophen-2-yl)-2-(1-methyl-1H-pyrazol-4-yl)pyrazolo[5,1-b]thiazole-7-carboxamide]
IC50 [1]: 156 nM | IC50 (VEGFR2, unphosphorylated): > 7500 nM

Cc1ncc(C(=O)NCCN2CC3CCC2CC3)cc1NC(=O)c1cnn2cc(-c3cnn(C(F)F)c3)sc12 [Example 180, N-(5-((2-(2-azabicyclo[2.2.2]octan-2-yl)ethyl)carbamoyl)-2-methylpyridin-3-yl)-2-(1-(difluoromethyl)-1H-pyrazol-4-yl)pyrazolo[5,1-b]thiazole-7-carboxamide]
IC50 [1]: 0.4 nM | IC50 (VEGFR2, unphosphorylated): > 7500 nM

Cc1cc(C(=O)NCCCN2CCCC2(C)C)sc1NC(=O)c1cnn2cc(-c3cnn(C)c3)sc12 [Example 201, N-(5-((3-(2,2-dimethylpyrrolidin-1-yl)propyl)carbamoyl)-3-methylthiophen-2-yl)-2-(1-methyl-1H-pyrazol-4-yl)pyrazolo[5,1-b]thiazole-7-carboxamide]
IC50 [1]: 58.5 nM | IC50 (VEGFR2, unphosphorylated): > 7500 nM
